Patent US5556859A, “N-(4-pyrimidinyl)amide pesticides” (DowElanco, priority 1994, dated 1996)

Experiments:
[1] = system: peanut root knot nematode (Meloidogyne arenaria); assay: whole plant or invertebrate; conditions: in Arachis hypogaea, read-out: percent mortality, RKN
[2] = system: aster leafhopper (Macrosteles fascifrons); assay: whole plant or invertebrate; conditions: 24 h, read-out: percent mortality, ALH
[3] = system: German cockroach (Blattella germanicus); assay: whole plant or invertebrate; conditions: 240 h, read-out: percent mortality, GECR
[4] = system: two spotted spider mite (Tetranychus urticae); assay: whole plant or invertebrate; conditions: 72 h, read-out: percent mortality, TSSM
[5] = system: Southern corn rootworm (Diabrotica undecimpuctata howardi Barber); assay: whole plant or invertebrate; conditions: in Zea mays, soil, read-out: percent mortality, SCRW
[6] = system: tobacco budworm (Heliothis virescens); assay: Activity against tobacco budworm (TBW); type: in vivo; conditions: 144 h, read-out: percent mortality, TBW
How it was run: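 Eighteen to twenty Heliothis virescens eggs were placed on half-strength artificial diet and sprayed one hour later with compound at 400 and 50 ppm, in aqueous Tween 20 with acetone/EtOH. Cups were held 6 days at room temperature. Ratings were based on live and dead larval counts and live larval size.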

[7] = system: cotton aphid (Aphis gossypii); assay: whole plant or invertebrate; conditions: 72 h, read-out: percent mortality, CA
[8] = system: beet armyworm (Spodoptera exiqua); assay: whole plant or invertebrate; conditions: 144 h, read-out: percent mortality, BAW

Compound | mortality at 400 ppm [1] | mortality at 400 ppm [2] | mortality at 400 ppm [3] | mortality at 400 ppm [4] | mortality at 24 µg/g [5] | mortality at 400 ppm [6] | mortality at 400 ppm [7] | mortality at 400 ppm [8]
CCc1nccc(NC(=O)Cc2ccc(Oc3ccc([N+](=O)[O-])cc3)cc2)n1 [Compound 53, 4-(4-nitrophenoxy)phenyl-N-(2-ethyl-4-pyrimidinyl)acetamide] | 100% | 90% | 80% | 100% | 100% | 100% | 100% | 100%
CCc1nccc(NC(=O)Cc2ccc(Oc3ccc(C#N)cn3)cc2)n1 [Compound 13, 4-(5-cyano-2-pyridinyloxy)phenyl-N-(2-ethyl-4-pyrimidinyl)acetamide] | 100% | 0% | 60% | 100% | 0% | 100% | 100% | 100%
CCc1nccc(NC(=O)Cc2ccc(Oc3ccc(C#N)cc3)cc2)n1 [Compound 12, 4-(4-cyanophenoxy)phenyl-N-(2-ethyl-4-pyrimidinyl)acetamide] | 100% | 100% | 100% | 100% | 100% | 100% | 100% | 100%
